One sequence from patent publication US20230257429A1, “PEPTIDE ADJUVANT FOR ITS THERAPEUTIC APPLICATIONS IN VIRAL AND TUMOUR VACCINE DEVELOPMENT AND CANCER IMMUNOTHERAPY AND AUTOIMMUNE DISEASE DIAGNOSIS AND TREATMENTS” (National University of Singapore, priority 2020, published 2023) can be followed below.

“Also recorded” adds a separate entry of the source.

What all share (assay type): cell-based, human
In assay [1] the test system is dendritic cells (DC). The assay is described as follows: Dendritic cell penetration, confocal microscopy. The following applies: data not shown.
The subject of assay [2] is PBMC. In words: Peptide binding to and penetration of PBMC, flow cytometry. The following applies: PBMC, peptide 200 μg/ml, 1 hr at 4° C. In outline:
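PBMC (3×10^6/ml, serum-free macrophage medium) incubated 1 h with biotinylated-detected peptides at 200 μg/ml, at 37 °C or 4 °C. Streptavidin-AF488 flow cytometry with viability dye, with or without permeabilization to separate surface binding from internalization; monocytes, T and B cells gated separately.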
A general note: A flow cytometer gives signals particle by particle.

Assay [3] concerns autologous CD4 and CD8 T cells. In words: Antigen-loaded DC co-culture with autologous lymphocytes, proliferation. The settings on record: DC:T 1:5, 2 weeks co-culture, CellTrace Violet. On the procedure: PBMC were isolated from healthy blood donors from which monocytes were isolated to culture DC and the remaining cells (mostly lymphocytes) were stored frozen as a source of autologous lymphocytes. DC were then incubated for 24 hr with P2+G, IPA1E2 or the IPA1E2-P2+G fusion polypeptide (SEQ ID NO: 58) in round bottom 96-well plates (5×10^4 cells/well) without adding additional adjuvants. The frozen lymphocytes were revived and labelled with CellTrace Violet (2.5 μM) for 10 min at 37° C. and then added to the DC wells at 2.5×10^5 cells/well (DC:T ratio=1:5). After 2 weeks of co-culture, the proliferation of CD4+ and CD8+ T cell and CD19+ B cell was analyzed by flow cytometry.

Assay [4] relates to dendritic cells (DC). In words: Dendritic cell penetration, confocal microscopy. On the procedure:
DC were harvested and cultured overnight on glass coverslips. The cells were first incubated for 1, 5, 15, 30 or 60 min with P2M6 (200 μg/ml) at 4° C. and then fixed in 4% (w/v) paraformaldehyde (PFA) for 20 min. Cells were permeabilized for 30 min in 0.1% (w/v) saponin and then incubated for 1 hr with streptavidin-AF488 (50 μg/ml). Cells were then mounted for imaging analysis. Alternatively, P2M6 was pre-incubated for 1 hr on ice with streptavidin-AF488 at 50 μg/ml and the peptide-streptavidin complexes were at 1/10 dilution incubated with DC for 1, 5, 15, 30 or 60 min at 4° C. and the cells were, after washing, directly mounted without fixation or permeabilization.
In another experiment set up, DC (2×10^5/ml) were incubated for 1 hr at 4° C. with P2M6 at different concentrations (10, 25, 50, 100, or 200 μg/ml). Cells were fixed and permeabilized to incubate for 1 hr with streptavidin-AF488 (50 μg/ml). Cells were washed and mounted for imaging analysis. Alternatively, Different concentrations of P2M6 ([…]) were pre-incubated for 1 hr on ice with streptavidin-AF488 (500 μg/ml). The preformed complexes were at 1/10 dilutions incubated with DC for 1 hr at 4° C. The cells were, after washing, directly mounted without fixation or permeabilization.
All cells were mounted using the VectaShield mounting medium containing DAPI (Vector Laboratories). Cells were analyzed using the FluoView FV3000 confocal microscope equipped with a 100× oil objective (aperture 1.45) and Cool/SNAP HQ2 image acquisition camera (Olympus). Images were captured with the FV-ASW 1.6b software and analyzed using the Imaris software (Bitplane AG).

Assay [5] has as its system dendritic cells (DC). In words: DC maturation, surface markers by flow cytometry. The settings on record: 200 μg/ml, 48 hr. Here is the method: In some experiments, to detect surface proteins on cultured DC, cells were harvested at day 6 and re-suspended at 1×10^5/ml in macrophage serum free medium (Thermo Fisher Scientific, cat #12065074). Cells were incubated for 1 hr on ice with fluorescent antibodies specific for CD14 (PE), CD1a (PE), or isotype-matched IgG. Cells were washed and analysed by flow cytometry. The harvested DC were also resuspended in the medium at 5×10^4/ml and cultured for 48 hr with LPS (0.5 μg/ml), P2M6 (200 μg/ml) or, as a control, PBS. Cells were then incubated with fluorescently tagged antibodies specific for MHC class II, CD40, CD80, CD83, CD86, and corresponding isotype controls. Cells were analysed by flow cytometry.
NCL-P2 was previously shown to activate DC as judged by TNFα induction [Wu, S., et al., Cell Death Dis 12: 477 (2021)]. Whether P2+G effectively activates these cells into mature antigen-presenting cells (APC) for effective T cell activation has not been examined. To this end, DC were stimulated for 48 hr with P2+G (200 μg/ml) or, as a positive control, LPS (0.5 μg/ml). As a negative control, DC were cultured without specific stimulation by adding equivalent volumes of PBS. DC were cultured from monocytes and were typically CD14^lo/− CD1a^hi [Cao, W., et al., Blood 107: 2777-2785 (2006)]. Cells were examined for surface expression of MHC class II, CD40, CD80, CD83 and CD86.

In assay [6] the test system is PBMC. In words: PBMC activation, TNFα and IL-1β ELISA. The following applies: PBMC stimulated 24 hr, TNFα in media. On the procedure: Buffy coat fractions were obtained from healthy blood donors at the Singapore Health Sciences Authority, with Institutional ethics approval, and PBMC were isolated using Ficoll-Paque (GE Healthcare). To isolate monocytes, PBMC were re-suspended to 1×10^7 cells/ml in the RPMI medium contained 5% (v/v) BCS and incubated for 1 hr in T75 flasks (20 ml/flask). Monocytes that adhered were harvested. To culture macrophages and DC [Cao, W., et al., Blood 107: 2777-2785, (2006), incorporated herein by reference], monocytes were resuspended to 1×10^6 cells/ml and cultured in 6-well plates (2 ml/well). Macrophages were cultured by adding M-CSF to 20 ng/ml and DC were cultured with 20 ng/ml GM-CSF and 40 ng/ml IL-4. M-CSF, GM-CSF and IL-4 were obtained from R&D Systems (Mineapolis, Minn.). Cells were cultured for 6 days with half of the media being replenished every two days.
Purified proteins in PBS (30 μg/ml) were coated in triplicates in 96-well plates (50 μl/well) for 12 hr and PBMC (3×10^6 cells/ml), monocytes (1×10^6 cells/ml), macrophages (0.5×10^6 cells/ml) or DC (0.5×10^6 cells/ml) were re-suspended in macrophage serum-free medium containing penicillin and streptomycin and cultured for 24 hr in these plates at 100 μl/well. Where TLR ligands were used to stimulate these cells, they were added to the media: LPS (500 ng/ml for DC and macrophages and 10 ng/ml for PMBC and monocytes, InvivoGen), flagellin (1 μg/ml, InvivoGen), lipoteichic acid (LTA, 10 μg/ml). Cell activation was determined by measuring TNFα and IL-1β in the culture media using ELISA kits (Invitrogen).
(In general: In an ELISA, binding on a coated surface is turned into a signal by an enzyme label.)

As for “GGFGGRGGGRGGRGGFGGRGGRGGFGGRGGFRGGRGG (NCL-P2+G)”, the “carrying ovalbumin into DC cytoplasm” value in the assay on dendritic cells (DC) [1] was “carried ovalbumin into DC cytoplasm”. Also, the “CPP activity compared with NCL-P2” value in the assay on PBMC [2] was “slightly higher CPP activity”. In the assay with PBMC [2] (listed as P2+G), the “CPP activity compared with NCL-P2” value was “slightly increased their CPP activities”. The “T cell proliferation / activation induced by peptide-loaded DC” value in assay [3] is “might not induce significant T cell activation to itself”. The “carrying cargo protein streptavidin into DC cytoplasm” value in the assay on dendritic cells (DC) [4] is given as “can carry cargo proteins across the cell membrane into the cytoplasm; also recorded: carry a cargo protein streptavidin into the DC cytoplasm”. In addition, in the assay on dendritic cells (DC) [4] (200 μg/ml, 4° C.), the “time of incubation within which DC were penetrated” value is no more than 1 min. Moreover, in the assay with dendritic cells (DC) [4] (1, 5, 15, 30 and 60 min, 4° C.), the “DC penetration over time” value is listed as “increased progressively from 5 to 60 min”. Also, in the assay on dendritic cells (DC) [4] (1 hr at 4° C.), the “DC penetration at 10 μg/ml of P2+G” value is listed as “not detectable; also recorded: no detectable DC penetration” and the “DC penetration at 25 μg/ml of P2+G” value was “low level of DC penetration”. Moreover, the “time to saturation of DC penetration” value in the assay on dendritic cells (DC) [4] (P2+G 200 μg/ml, on ice) is 30 min. Also, the “intracellular localisation in DC” value in the assay on dendritic cells (DC) [4] (confocal microscopy) is reported as “penetrated into the nucleoli faster than it penetrated into the cytoplasm”. Besides, in the assay with dendritic cells (DC) [4] (free peptide 25 to 200 μg/ml, streptavidin-bound 10 to 100 μg/ml), the “change of intracellular pool in DC with increasing P2+G concentration” value was “increased following increasing concentrations”. The “DC maturation (MHC class II, CD40, CD80, CD83, CD86)” value with dendritic cells (DC) [5] is “effectively activated DC maturation”. Further, in the assay on PBMC [6], the “adjuvant (alarmin) activity compared with NCL-P2” value was “significantly higher alarmin activity” and the “increase in adjuvant (alarmin) activity compared with NCL-P2” value was 3 fold.
